# Experimental data reported in the supplement of paper PMC12137928.
# Counter-ions that a name gives are not always drawn.
# Assays:
# HCT116 [1] = conditions: 72 h
# Summary of the method: (§1)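 HCT116 cells went into 1536-well plates at 250 per well. CellTiter-Glo luminescence was expressed relative to vehicle (0%) and positive control (-100%) and then pattern-corrected. Both IC50 and maximal efficacy were taken from four-parameter Hill fits.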
# HCT116 [2] = assay: efficacy (maximum % inhibition of viability vs DMSO); higher = more cytotoxic; conditions: 72 h
# Summary of the method: as §1
Compound,IC50 cell viability (HCT116 [1]; ICRF193 0 nM),IC50 cell viability (HCT116 [1]; ICRF193 200 nM),efficacy (HCT116 [2]; ICRF193 0 nM),efficacy (HCT116 [2]; ICRF193 200 nM)
CO[C@H]1/C=C/O[C@@]2(C)Oc3c(C)c(O)c4c(O)c(c(/C=N/N5CCN(C)CC5)c(O)c4c3C2=O)NC(=O)/C(C)=C\C=C\[C@H](C)[C@H](O)[C@@H](C)[C@@H](O)[C@@H](C)[C@H](OC(C)=O)[C@@H]1C [Rifampicin],29.1 µM,29.1 µM,44.2%,44.1%
Cc1cc(/C=C/C#N)cc(C)c1Nc1ccnc(Nc2ccc(C#N)cc2)n1 [Rilpivirine],20.6 µM,18.3 µM,83.7%,84.8%
Nc1nc2ccc(OC(F)(F)F)cc2s1 [Riluzole],> 45.8 µM,23.1 µM,–,46.2%
Cc1c(C(=O)NN2CCCCC2)nn(-c2ccc(Cl)cc2Cl)c1-c1ccc(Cl)cc1 [Rimonabant],18.3 µM,29.1 µM,64.4%,87.3%
CC(C)c1nc(CN(C)C(=O)N[C@H](C(=O)N[C@@H](Cc2ccccc2)C[C@H](O)[C@H](Cc2ccccc2)NC(=O)OCc2cncs2)C(C)C)cs1 [Ritonavir],> 45.8 µM,20.6 µM,–,57.4%
O=C(O)c1c(Cl)c(Cl)c(Cl)c(Cl)c1-c1c2cc(I)c(=O)c(I)c-2oc2c(I)c(O)c(I)cc12 [Rose Bengal disodium],16.4 µM,11.6 µM,74.2%,62.4%
C=C(C)[C@H]1Cc2c(ccc3c2O[C@@H]2COc4cc(OC)c(OC)cc4[C@@H]2C3=O)O1 [Rotenone],0.326 µM,0.517 µM,69.7%,89.1%
CC[C@@]1(O)C(=O)OCc2c1cc1n(c2=O)Cc2cc3c([N+](=O)[O-])cccc3nc2-1 [Rubitecan],0.447 µM,0.0891 µM,81.2%,96.5%
Cc1cncc(CN2CCC(=C3c4ccc(Cl)cc4CCc4cccnc43)CC2)c1 [Rupatadine (Fumarate)],18.3 µM,20.6 µM,56.6%,88.3%
N#CC[C@H](C1CCCC1)n1cc(-c2ncnc3[nH]ccc23)cn1 [Ruxolitinib],29.1 µM,29.1 µM,85.9%,88.8%
"CC[C@@H](C(=O)[C@@H](C)[C@@H](O)[C@H](C)[C@@H]1O[C@@H]([C@@H](CC)C(=O)O)CC[C@@H]1C)[C@H]1O[C@]2(C=C[C@@H](O)[C@]3(CC[C@@](C)([C@H]4CC[C@](O)(CC)[C@H](C)O4)O3)O2)[C@H](C)C[C@@H]1C [SALINOMYCIN, SODIUM]",2.31 µM,1.3 µM,104%,100%
CO[C@H]1C[C@H](O[C@@H]2/C(C)=C/C[C@@H]3C[C@@H](C[C@]4(CC[C@H](C)[C@@H](C5CCCCC5)O4)O3)OC(=O)[C@@H]3C=C(C)/C(=N/O)[C@H]4OC/C(=C\C=C\[C@@H]2C)[C@]43O)O[C@@H](C)[C@@H]1O [SELAMECTIN],29.1 µM,20.6 µM,99.6%,109%
OCc1cc(C(O)CNCCCCCCOCCCCc2ccccc2)ccc1O (configuration not stated) [Salmeterol xinafoate],23.1 µM,23.1 µM,108%,110%
C[n+]1cc2c3c(ccc2c2ccc4cc5c(cc4c21)OCO5)OCO3 [Sanguinarine],2.83 µM,2.53 µM,98.2%,91.6%
CC(C)(C)NC(=O)[C@@H]1C[C@@H]2CCCC[C@@H]2CN1C[C@@H](O)[C@H](Cc1ccccc1)NC(=O)[C@H](CC(N)=O)NC(=O)c1ccc2ccccc2n1 [Saquinavir],29.1 µM,20.6 µM,84.1%,108%
O=C1NCCN1CCN1CCC(c2cn(-c3ccc(F)cc3)c3ccc(Cl)cc23)CC1 [Sertindole],16.4 µM,23.1 µM,105%,117%
CN[C@H]1CC[C@@H](c2ccc(Cl)c(Cl)c2)c2ccccc21 [Sertraline hydrochloride],18.3 µM,18.3 µM,95.4%,97.5%
CN1CCC2=C(C1)c1ccccc1Cc1ccccc12 [Setiptiline],20.6 µM,> 45.8 µM,44.1%,–
CO[C@H]1C[C@@H]2CC[C@@H](C)[C@@](O)(O2)C(=O)C(=O)N2CCCC[C@H]2C(=O)O[C@H]([C@H](C)C[C@@H]2CC[C@@H](O)[C@H](OC)C2)CC(=O)[C@H](C)/C=C(\C)[C@@H](O)[C@@H](OC)C(=O)[C@H](C)C[C@H](C)/C=C/C=C/C=C/1C [Sirolimus],20.6 µM,29.1 µM,91.7%,88.6%
CC(C)=CCOc1ccc(/C=C/C(=O)c2ccc(OCC=C(C)C)cc2OCC(=O)O)cc1 [Sofalcone],29.1 µM,> 45.8 µM,108%,–
Cc1c(C(=O)Nc2ccc(N3C[C@@H](C)O[C@@H](C)C3)nc2)cccc1-c1ccc(OC(F)(F)F)cc1 [Sonidegib],10.3 µM,13 µM,42.7%,60.5%
CNC(=O)c1cc(Oc2ccc(NC(=O)Nc3ccc(Cl)c(C(F)(F)F)c3)cc2)ccn1 [Sorafenib],20.6 µM,29.1 µM,113%,52.1%
O=C1CSC2(CCN(CCCN3c4ccccc4Sc4ccc(Cl)cc43)CC2)N1 [Spiclomazine hydrochloride],20.6 µM,23.1 µM,81.3%,82.5%
CC(=O)S[C@@H]1CC2=CC(=O)CC[C@]2(C)[C@H]2CC[C@@]3(C)[C@@H](CC[C@@]34CCC(=O)O4)[C@H]12 [Spironolactone],16.4 µM,20.6 µM,50.9%,73.6%

Compound,IC50 cell viability (HCT116 [1]; ICRF193 0 nM),IC50 cell viability (HCT116 [1]; ICRF193 200 nM),efficacy (HCT116 [2]; ICRF193 0 nM),efficacy (HCT116 [2]; ICRF193 200 nM)
OC[C@H]1O[C@H](O[C@]2(CCl)O[C@H](CCl)[C@@H](O)[C@@H]2O)[C@H](O)[C@@H](O)[C@H]1Cl [Sucralose],> 45.8 µM,6.51 µM,–,44.6%
Clc1ccc(CSC(Cn2ccnc2)c2ccc(Cl)cc2Cl)cc1 (configuration not stated) [Sulconazole nitrate],29.1 µM,18.3 µM,89.6%,76.4%
CCN(CC)CCNC(=O)c1c(C)[nH]c(/C=C2\C(=O)Nc3ccc(F)cc32)c1C [Sunitinib malate],18.3 µM,16.4 µM,108%,111%
CCCCC1(COC(=O)CCC(=O)O)C(=O)N(c2ccccc2)N(c2ccccc2)C1=O [Suxibuzone],> 45.8 µM,25.9 µM,–,58.2%
CCOC(=O)Oc1c(OC)cc(C(=O)O[C@@H]2C[C@@H]3CN4CCc5c([nH]c6cc(OC)ccc56)[C@H]4C[C@@H]3[C@H](C(=O)OC)[C@H]2OC)cc1OC [Syrosingopine],29.1 µM,16.4 µM,112%,101%
CCO/N=C(\C(=O)N[C@@H]1C(=O)N2C(C(=O)[O-])=C(Sc3nc(-c4cc[n+](C)cc4)cs3)CS[C@H]12)c1nsc(NP(=O)(O)O)n1 [TAK-599],25.9 µM,29.1 µM,57.6%,76.4%
CN1CCN(CC/C=C2/c3ccccc3Sc3ccc(S(=O)(=O)N(C)C)cc32)CC1 [THIOTHIXENE],20.6 µM,20.6 µM,112%,126%
Cc1cc(-n2c(=O)[nH]c(=O)n(C)c2=O)ccc1Oc1ccc(SC(F)(F)F)cc1 [TOLTRAZURIL],> 45.8 µM,20.6 µM,–,41.6%
C=C1/C(=C\C=C2/CCC[C@]3(C)[C@@H]([C@H](C)CC[C@@H](O)C(C)C)CC[C@@H]23)C[C@@H](O)C[C@@H]1O [Tacalcitol],23.1 µM,20.6 µM,49.2%,53.2%
CC1(C)CCC(C)(C)c2cc(NC(=O)c3ccc(C(=O)O)cc3)ccc21 [Tamibarotene],20.6 µM,> 45.8 µM,52.7%,–
CC/C(=C(\c1ccccc1)c1ccc(OCCN(C)C)cc1)c1ccccc1 [Tamoxifen],23.1 µM,18.3 µM,101%,93%
O=C(OC[C@H]1O[C@@H](OC(=O)c2cc(O)c(O)c(OC(=O)c3cc(O)c(O)c(O)c3)c2)[C@H](OC(=O)c2cc(O)c(O)c(OC(=O)c3cc(O)c(O)c(O)c3)c2)[C@@H](OC(=O)c2cc(O)c(O)c(OC(=O)c3cc(O)c(O)c(O)c3)c2)[C@@H]1OC(=O)c1cc(O)c(O)c(OC(=O)c2cc(O)c(O)c(O)c2)c1)c1cc(O)c(O)c(OC(=O)c2cc(O)c(O)c(O)c2)c1 [Tannic acid],18.3 µM,18.3 µM,108%,102%
CCC[C@H](NC(=O)[C@@H]1[C@H]2CCC[C@H]2CN1C(=O)[C@@H](NC(=O)[C@@H](NC(=O)c1cnccn1)C1CCCCC1)C(C)(C)C)C(=O)C(=O)NC1CC1 [Telaprevir (VX-950)],20.6 µM,29.1 µM,80.7%,74.5%
Oc1cccc(-c2c3nc(c(-c4cccc(O)c4)c4ccc([nH]4)c(-c4cccc(O)c4)c4nc(c(-c5cccc(O)c5)c5ccc2[nH]5)CC4)C=C3)c1 [Temoporfin],> 45.8 µM,25.9 µM,–,46%
CO[C@H]1C[C@@H]2CC[C@@H](C)[C@@](O)(O2)C(=O)C(=O)N2CCCC[C@H]2C(=O)O[C@H]([C@H](C)C[C@@H]2CC[C@@H](OC(=O)C(C)(CO)CO)[C@H](OC)C2)CC(=O)[C@H](C)/C=C(\C)[C@@H](O)[C@@H](OC)C(=O)[C@H](C)C[C@H](C)/C=C/C=C/C=C/1C [Temsirolimus],14.2 µM,15.9 µM,74.5%,79%
COc1cc([C@@H]2c3cc4c(cc3[C@@H](O[C@@H]3O[C@@H]5CO[C@@H](c6cccs6)O[C@H]5[C@H](O)[C@H]3O)[C@H]3COC(=O)[C@H]23)OCO4)cc(OC)c1O [Teniposide],2.31 µM,1.83 µM,92%,103%
COc1ccc(-n2nc(CCC(=O)N(C)O)cc2-c2ccc(Cl)cc2)cc1 [Tepoxalin],16.4 µM,16.4 µM,93.4%,88.3%
C/C(O)=C(\C#N)C(=O)Nc1ccc(C(F)(F)F)cc1 [Teriflunomide],13 µM,11.6 µM,51.8%,46.2%
CN(C)C(=S)SC(=S)N(C)C [Tetramethylthiuram monosulfide],> 45.8 µM,3.66 µM,–,40.7%
CCSc1ccc2c(c1)N(CCCN1CCN(C)CC1)c1ccccc1S2 [Thiethylperazine dimalate],29.1 µM,20.6 µM,102%,101%
OC[C@H]1O[C@@H](n2cnc3c(S)ncnc32)[C@H](O)[C@@H]1O [Thioinosine],3.26 µM,3.66 µM,95.1%,93.2%
CN1CCN(CCCN2c3ccccc3Sc3ccc(S(=O)(=O)N(C)C)cc32)CC1 [Thioproperazine dimethanesulfonate],> 45.8 µM,20.6 µM,–,46.2%
CSc1ccc2c(c1)N(CCC1CCCCN1C)c1ccccc1S2 (configuration not stated) [Thioridazine],23.1 µM,18.3 µM,115%,95%
